Measured values reported in ChEMBL document CHEMBL1201861, “Genomics of Drug Sensitity in Cancer screening data, Wellcome Trust Sanger Institute”.

Assays:
SKG-IIIa = assay: cells; type: functional, cell-based, Homo sapiens; conditions: Homo sapiens, SKG-IIIa
Description: SANGER: Inhibition of human SKG-IIIa cell growth in a cell viability assay.

TE-1 = assay: cells; type: functional, cell-based, Homo sapiens; conditions: Homo sapiens, TE-1;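 note: growth inhibition of the human TE-1 cell line, read out with a cell viability assay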
Description: SANGER: Inhibition of human TE-1 cell growth in a cell viability assay.

NB13 = assay: cells; type: functional, cell-based, Homo sapiens; conditions: Homo sapiens, NB13;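 note: cell viability readout measuring growth inhibition of human NB13 cells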
Description: SANGER: Inhibition of human NB13 cell growth in a cell viability assay.

OCI-AML2 = assay: cells; type: functional, cell-based, Homo sapiens; conditions: Homo sapiens, OCI-AML2;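 note: growth inhibition of OCI-AML2 cells, read out with a cell viability assay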
Description: SANGER: Inhibition of human OCI-AML2 cell growth in a cell viability assay.

ASPC1 = assay: cells; type: functional, cell-based, Homo sapiens; conditions: Homo sapiens, ASPC1;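 note: growth inhibition of AsPC-1 cells, read out with a cell viability assay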
Description: SANGER: Inhibition of human AsPC-1 cell growth in a cell viability assay.

RPMI 8402 = assay: SANGER: Inhibition of human RPMI-8402 cell growth in a cell viability assay.; type: functional, cell-based; conditions: Homo sapiens, RPMI 8402; read-out: IC50
T98G = assay: cells; type: functional, cell-based, Homo sapiens; conditions: Homo sapiens, T98G;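 note: growth inhibition of T98G cells, read out by a cell viability assay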
Description: SANGER: Inhibition of human T98G cell growth in a cell viability assay.

NCI-H1304 = assay: cells; type: functional, cell-based, Homo sapiens; conditions: Homo sapiens, NCI-H1304;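 note: growth inhibition of the cancer cell line, measured in a cell viability assay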
Description: SANGER: Inhibition of human NCI-H1304 cell growth in a cell viability assay.

TE-441-T = assay: cells; type: functional, cell-based, Homo sapiens; conditions: Homo sapiens, TE-441-T
Description: SANGER: Inhibition of human TE-441-T cell growth in a cell viability assay.

NCI-H2087 = assay: cells; type: functional, cell-based, Homo sapiens; conditions: Homo sapiens, NCI-H2087;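 note: growth inhibition determined with a cell viability readout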
Description: SANGER: Inhibition of human NCI-H2087 cell growth in a cell viability assay.

HOP-62 = assay: cells; type: functional, cell-based, Homo sapiens; conditions: Homo sapiens, HOP-62
Description: SANGER: Inhibition of human HOP-62 cell growth in a cell viability assay.

NCI-H1437 = assay: cells; type: functional, cell-based, Homo sapiens; conditions: Homo sapiens, NCI-H1437;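 note: growth inhibition of human NCI-H1437 cells, read out by a cell viability assay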
Description: SANGER: Inhibition of human NCI-H1437 cell growth in a cell viability assay.

KU812 cell line = assay: cells; type: functional, cell-based, Homo sapiens; conditions: Homo sapiens, KU812;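 note: growth inhibition of KU812 cells, read out with a cell viability assay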
Description: SANGER: Inhibition of human KU812 cell growth in a cell viability assay.

D-392MG = assay: cells; type: functional, cell-based, Homo sapiens; conditions: Homo sapiens, D-392MG
HO-1-N-1 = assay: cells; type: functional, cell-based, Homo sapiens; conditions: Homo sapiens, HO-1-N-1;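 note: growth inhibition of human HO-1-N-1 cells, read out with a cell viability assay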
Description: SANGER: Inhibition of human HO-1-N-1 cell growth in a cell viability assay.

CAL-33 = assay: cells; type: functional, cell-based, Homo sapiens; conditions: Homo sapiens, CAL-33;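 note: growth inhibition of CAL-33 cells, read out with a cell viability assay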
Description: SANGER: Inhibition of human CAL-33 cell growth in a cell viability assay.

KY821 = assay: cells; type: functional, cell-based, Homo sapiens; conditions: Homo sapiens, KY821;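 note: growth inhibition of human KY821 cells, read out by a cell viability assay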
Description: SANGER: Inhibition of human KY821 cell growth in a cell viability assay.

KARPAS-299 = assay: cells; type: functional, cell-based, Homo sapiens; conditions: Homo sapiens, KARPAS-299
Description: SANGER: Inhibition of human KARPAS-299 cell growth in a cell viability assay.

CAPAN-1 = assay: cells; type: functional, cell-based, Homo sapiens; conditions: Homo sapiens, CAPAN-1;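 note: growth suppression of CAPAN-1 cells, read out by a cell viability assay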
Description: SANGER: Inhibition of human CAPAN-1 cell growth in a cell viability assay.

BC-3 = assay: cells; type: functional, cell-based, Homo sapiens; conditions: Homo sapiens, BC-3;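 note: cell viability assay measuring growth inhibition of human BC-3 cells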
Description: SANGER: Inhibition of human BC-3 cell growth in a cell viability assay.

CTB-1 = assay: cells; type: functional, cell-based, Homo sapiens; conditions: Homo sapiens, CTB-1
Description: SANGER: Inhibition of human CTB-1 cell growth in a cell viability assay.

PC-14 = assay: cells; type: functional, cell-based, Homo sapiens; conditions: Homo sapiens, PC-14;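 note: cell viability assay measuring inhibition of PC-14 cell growth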
Description: SANGER: Inhibition of human PC-14 cell growth in a cell viability assay.

UMUC3 = assay: cells; type: functional, cell-based, Homo sapiens; conditions: Homo sapiens, UMUC3;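 note: growth inhibition of human UM-UC-3 cells, read out with a cell viability assay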
Description: SANGER: Inhibition of human UM-UC-3 cell growth in a cell viability assay.

LN-405 = assay: cells; type: functional, cell-based, Homo sapiens; conditions: Homo sapiens, LN-405
Description: SANGER: Inhibition of human LN-405 cell growth in a cell viability assay.

Lu-65 = assay: cells; type: functional, cell-based, Homo sapiens; conditions: Homo sapiens, Lu-65;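 note: growth inhibition of Lu-65 cancer cells, read out by a cell viability assay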
Description: SANGER: Inhibition of human LU-65 cell growth in a cell viability assay.

NCI-H1581 = assay: cells; type: functional, cell-based, Homo sapiens; conditions: Homo sapiens, NCI-H1581
Description: SANGER: Inhibition of human NCI-H1581 cell growth in a cell viability assay.

SBC-1 = assay: cells; type: functional, cell-based, Homo sapiens; conditions: Homo sapiens, SBC-1;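 note: cell viability assay measuring growth inhibition of the SBC-1 cell line, IC50 being the concentration that halves growth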
Description: SANGER: Inhibition of human SBC-1 cell growth in a cell viability assay.

LOX IMVI = assay: cells; type: functional, cell-based, Homo sapiens; conditions: Homo sapiens, LOX IMVI
Description: SANGER: Inhibition of human LOXIMVI cell growth in a cell viability assay.

HCC1395 = assay: cells; type: functional, cell-based, Homo sapiens; conditions: Homo sapiens, HCC1395;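 note: growth inhibition of HCC1395 cells, read out by a cell viability assay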
Description: SANGER: Inhibition of human HCC1395 cell growth in a cell viability assay.

RPMI-2650 = assay: cells; type: functional, cell-based, Homo sapiens; conditions: Homo sapiens, RPMI-2650
Description: SANGER: Inhibition of human RPMI-2650 cell growth in a cell viability assay.

NCI-H2347 = assay: cells; type: functional, cell-based, Homo sapiens; conditions: Homo sapiens, NCI-H2347
Description: SANGER: Inhibition of human NCI-H2347 cell growth in a cell viability assay.

8505C = assay: cells; type: functional, cell-based, Homo sapiens; conditions: Homo sapiens, 8505C
Description: SANGER: Inhibition of human 8505C cell growth in a cell viability assay.

BXPC-3 = assay: cells; type: functional, cell-based, Homo sapiens; conditions: Homo sapiens, BXPC-3;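 note: growth inhibition of human BxPC-3 cells, read out by a cell viability assay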
Description: SANGER: Inhibition of human BxPC-3 cell growth in a cell viability assay.

FTC-133 = assay: cells; type: functional, cell-based, Homo sapiens; conditions: Homo sapiens, FTC-133
G-401 = assay: cells; type: functional, cell-based, Homo sapiens; conditions: Homo sapiens, G-401
Description: SANGER: Inhibition of human G-401 cell growth in a cell viability assay.

MDA-MB-453 = assay: cells; type: functional, cell-based, Homo sapiens; conditions: Homo sapiens, MDA-MB-453
Description: SANGER: Inhibition of human MDA-MB-453 cell growth in a cell viability assay.

Huh-7 = assay: cells; type: functional, cell-based, Homo sapiens; conditions: Homo sapiens, Huh-7;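 note: HuH-7 cell growth inhibition, read out with a cell viability assay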
Description: SANGER: Inhibition of human HuH-7 cell growth in a cell viability assay.

GI-ME-N = assay: cells; type: functional, cell-based, Homo sapiens; conditions: Homo sapiens, GI-ME-N;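 note: growth inhibition of human GI-ME-N cells, read out with a cell viability assay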
Description: SANGER: Inhibition of human GI-ME-N cell growth in a cell viability assay.

A 172 = assay: cells; type: functional, cell-based, Homo sapiens; conditions: Homo sapiens, A 172;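 note: growth inhibition of A172 cells, measured with a cell viability readout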
Description: SANGER: Inhibition of human A172 cell growth in a cell viability assay.

ST486 = assay: SANGER: Inhibition of human ST486 cell growth in a cell viability assay.; type: functional, cell-based; conditions: Homo sapiens, ST486
MZ2-MEL = assay: cells; type: functional, cell-based, Homo sapiens; conditions: Homo sapiens, MZ2-MEL;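 note: growth inhibition of MZ2-MEL cells read out with a cell viability assay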
Description: SANGER: Inhibition of human MZ2-MEL cell growth in a cell viability assay.

NCI-H716 = assay: cells; type: functional, cell-based, Homo sapiens; conditions: Homo sapiens, NCI-H716;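 note: growth inhibition of human NCI-H716 cells, measured by a cell viability assay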
Description: SANGER: Inhibition of human NCI-H716 cell growth in a cell viability assay.

U-698-M = assay: cells; type: functional, cell-based, Homo sapiens; conditions: Homo sapiens, U-698-M
Description: SANGER: Inhibition of human U-698-M cell growth in a cell viability assay.

NCI-H358 = assay: cells; type: functional, cell-based, Homo sapiens; conditions: Homo sapiens, NCI-H358;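 note: growth inhibition of NCI-H358 human cells, read out with a cell viability assay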
Description: SANGER: Inhibition of human NCI-H358 cell growth in a cell viability assay.

GAK = assay: cells; type: functional, cell-based, Homo sapiens; conditions: Homo sapiens, GAK
Description: SANGER: Inhibition of human GAK cell growth in a cell viability assay.

MC-CAR = assay: cells; type: functional, cell-based, Homo sapiens; conditions: Homo sapiens, MC-CAR;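 note: growth inhibition of the human MC-CAR cell line, read out by a cell viability assay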
Description: SANGER: Inhibition of human MC-CAR cell growth in a cell viability assay.

MKN-45 = assay: cells; type: functional, cell-based, Homo sapiens; conditions: Homo sapiens, MKN-45;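 note: growth inhibition of human MKN-45 cells, measured with a cell viability assay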
Description: SANGER: Inhibition of human MKN45 cell growth in a cell viability assay.

D-336MG = assay: cells; type: functional, cell-based, Homo sapiens; conditions: Homo sapiens, D-336MG
Description: SANGER: Inhibition of human D-336MG cell growth in a cell viability assay.

CCC/C=C/C=C/C(=O)O[C@H]1/C(=C/C(=O)OC)C[C@H]2C[C@H]([C@@H](C)O)OC(=O)C[C@H](O)C[C@@H]3C[C@H](OC(C)=O)C(C)(C)[C@](O)(C[C@@H]4C/C(=C/C(=O)OC)C[C@H](/C=C/C(C)(C)[C@]1(O)O2)O4)O3 [BRYOSTATIN 1]
IC50 (SKG-IIIa): > 8 nM | IC50 (TE-1): > 8 nM | IC50 (NB13): > 8 nM | IC50 (OCI-AML2): > 8 nM | IC50 (ASPC1): > 8 nM | IC50 (RPMI 8402): > 8 nM | IC50 (T98G): > 8 nM | IC50 (NCI-H1304): > 8 nM | IC50 (TE-441-T): > 8 nM | IC50 (NCI-H2087): > 8 nM | IC50 (HOP-62): > 8 nM | IC50 (NCI-H1437): > 8 nM | IC50 (KU812 cell line): > 8 nM | IC50 (D-392MG): > 8 nM | IC50 (HO-1-N-1): > 8 nM | IC50 (CAL-33): > 8 nM | IC50 (KY821): > 8 nM | IC50 (KARPAS-299): > 8 nM | IC50 (CAPAN-1): > 8 nM | IC50 (BC-3): > 8 nM | IC50 (CTB-1): > 8 nM | IC50 (PC-14): > 8 nM | IC50 (UMUC3): > 8 nM | IC50 (LN-405): > 8 nM | IC50 (Lu-65): > 8 nM | IC50 (NCI-H1581): > 8 nM | IC50 (SBC-1): > 8 nM | IC50 (LOX IMVI): > 8 nM | IC50 (HCC1395): > 8 nM | IC50 (RPMI-2650): > 8 nM | IC50 (NCI-H2347): > 8 nM | IC50 (8505C): > 8 nM | IC50 (BXPC-3): > 8 nM | IC50 (FTC-133): > 8 nM | IC50 (G-401): > 8 nM | IC50 (MDA-MB-453): > 8 nM | IC50 (Huh-7): > 8 nM | IC50 (GI-ME-N): > 8 nM | IC50 (A 172): > 8 nM | IC50 (ST486): > 8 nM | IC50 (MZ2-MEL): > 8 nM | IC50 (NCI-H716): > 8 nM | IC50 (U-698-M): > 8 nM | IC50 (NCI-H358): > 8 nM | IC50 (GAK): > 8 nM | IC50 (MC-CAR): > 8 nM | IC50 (MKN-45): > 8 nM

CO[C@H]1C[C@@H]2CC[C@@H](C)[C@@](O)(O2)C(=O)C(=O)N2CCCC[C@H]2C(=O)O[C@H]([C@H](C)C[C@@H]2CC[C@@H](OC(=O)C(C)(CO)CO)[C@H](OC)C2)CC(=O)[C@H](C)/C=C(\C)[C@@H](O)[C@@H](OC)C(=O)[C@H](C)C[C@H](C)/C=C/C=C/C=C/1C [TEMSIROLIMUS]
IC50 (SKG-IIIa): > 200 nM | IC50 (TE-1): > 200 nM | IC50 (NB13): > 200 nM | IC50 (OCI-AML2): > 200 nM | IC50 (ASPC1): > 200 nM | IC50 (T98G): 26.2 nM | IC50 (NCI-H1304): > 200 nM | IC50 (NCI-H2087): > 200 nM | IC50 (HOP-62): > 200 nM | IC50 (NCI-H1437): 103 nM | IC50 (KU812 cell line): > 200 nM | IC50 (D-392MG): > 200 nM | IC50 (HO-1-N-1): 8.2 nM | IC50 (CAL-33): > 200 nM | IC50 (KY821): > 200 nM | IC50 (KARPAS-299): > 200 nM | IC50 (CAPAN-1): > 200 nM | IC50 (D-336MG): 76 nM | IC50 (CTB-1): 2.93 nM | IC50 (PC-14): > 200 nM | IC50 (UMUC3): 69.2 nM | IC50 (LN-405): 135 nM | IC50 (Lu-65): > 200 nM | IC50 (NCI-H1581): > 200 nM | IC50 (SBC-1): 0.444 nM | IC50 (LOX IMVI): 120 nM | IC50 (HCC1395): > 200 nM | IC50 (RPMI-2650): 117 nM | IC50 (NCI-H2347): > 200 nM | IC50 (8505C): > 200 nM | IC50 (BXPC-3): > 200 nM | IC50 (FTC-133): 50.6 nM | IC50 (G-401): 89 nM | IC50 (MDA-MB-453): > 200 nM | IC50 (Huh-7): 12.3 nM | IC50 (GI-ME-N): > 200 nM | IC50 (A 172): > 200 nM | IC50 (MZ2-MEL): 56.9 nM | IC50 (NCI-H358): 131 nM | IC50 (GAK): > 200 nM | IC50 (MKN-45): > 200 nM
